# “Also recorded” adds a separate entry of the source.
# How the values were obtained:
# Assay type in all cases: cell-based, human
# IL-10 [1] = assay: IL-10 production by PBMC from healthy volunteers, CBA; conditions: FIG. 9
# Procedure: (§1) CBA protocol was followed according to the manufacturer's instructions. The election of microparticles was performed following the summary of FIG. 1.
# (§2) The acquisition on samples was performed with the BD FACS Array Bioanalyser System (FACSArray, Becton Dickinson, San José, Calif., USA) and the analysis of the results was completed with the software FCAP Array (Becton Dickinson) in a PC computer.
# (§3) Briefly, the experimental protocol consisted of a plate pre-washing out with Wash Buffer. After decantation, the mixture of capture microparticles was re-suspended in the vortex. Standards and samples were added in the adequate dilution. After permanent stirring incubation during 1 h, the PE detection reagent was added and incubated again during 2 h at room temperature. After a washing-out, the acquisition was performed in the flow cytometer.
# The effects of compound 12 on IL-10 production by the PBMC from healthy volunteers and patients with rheumatoid arthritis were investigated in the presence and absence of LPS stimulation and with the combination of monoclonal antibodies anti-CD3 and anti-CD28. […]
# CD62L in lymphocytes = assay: Shedding of CD62L in lymphocytes of PBMC, flow cytometry; conditions: healthy volunteers; 10^−6 M; p<0.05; FIG. 12a
# Procedure: (§4) Direct immuno-fluorescence techniques of one colour with monoclonal antibodies phycoerythrin-labeled (PE) was used. PE is a fluorescent substance excitable with a 488 nm laser, which emits at 570 nm, and it is detectable and easily distinguishable by a flow cytometer. By using the antibody described in Table 1, a direct labelling was performed:
# (§5) PBMC labelling: the process consisted in a labelling using 96 well V bottom plates. In each well, 5×10^4 cells are located, and afterwards centrifugated at 400×g during 5 minutes. After washing-out, cells are re-suspended and 5 μl of the corresponding monoclonal antibody are added. Cells are again re-suspended and the plate is incubated in darkness, during 20 minutes, at 4° C. Subsequently, 150 μl PBS are added and two wash-outs are performed. Finally, it is re-suspended in 150 μl PBS and collected in a cytometer tube, adding PBS up to a final volume of 0.3 ml.
# (§6) For the counting, a FACSCalibur flow cytometer equipped with argon laser tuned at 488 nm was used in order to induce phycoerythrin fluorescence. The equipment, apart from the fluorescence channels, also provided information about the size (FSC) and cellular complexity (SSC).
# (§7) As negative controls, the study cells with no labelling and other irrelevant labelled with monoclonal antibodies of equal isotypes than the ones used in the study (IgG1-FITC, PE y TC, IgG2a FITC, PE, TC), were used. […]
# TNF-alpha [2] = assay: TNF-alpha production by PBMC of healthy volunteers, Cytometric Bead Array
# IL-10 [3] = assay: IL-10 production by PBMC from patients with rheumatoid arthritis, CBA
# Procedure: as §1, §2, §3
# On the other hand, PBMC (5×10^4 cells per well) from 8 patients with rheumatoid arthritis were cultured in duplicate in 200 μl of complete medium supplemented with the highest solvent concentration (10^−6 M), and 10^−6 M, 10^−7 M and 10^−8 M of compound 12 in the presence and absence of either LPS (10 μg/ml) or anti-CD3 (12.5 ng/ml), +anti-CD28 (⅓×10^5), during 24 hours. […]
# CD62L in monocytes = assay: Shedding of CD62L in monocytes of PBMC, flow cytometry; conditions: healthy volunteers; FIG. 12b
# Procedure: as §4, §5, §6, §7
# TNF-alpha [4] = assay: TNF-alpha production by PBMC of healthy volunteers, ELISA
# Procedure: In order to quantify the serum cytokines concentration, the extracted blood was stored in tubes both with and without anti-coagulant (collected by antecubital venopunction and arterial catheter, respectively). Blood was allowed to coagulate at room temperature in the laboratory, further separating the serum by centrifugation (600×g during 20 minutes). Supernatant were collected, filtered, divided in aliquotes and stored at −70° C. Concentration assays for different cytokines were performed by using the commercial kits described in Table 2.
# Supernatants were unfrozen up to the room temperature and faced against the respective anti-cytokine by fixing them in the plate bottom and incubating them during a variable time. […] The results were assessed with the enzymo-immunoanalysis reader Multititer Plus (Tiertek Multiscan Plus, Flow Laboratories). […]
# Effects of compound 12 on TNF-alpha production by PBMC of healthy volunteers in the presence or in the absence of LPS were first investigated. […] Supernatant of cultures were frozen at −20° C. and the concentration of TNF-alpha was quantified with ELISA species-specific (enzyme-linked immunosorbent assay for quantitative detection of tumour necrosis factor-alpha: human TNF-alpha ELISA BM S223/4TEUCE, Bender Med System Inc, Burlinghane Calif. 94010).
smiles,measurement,setting,value
"Cc1nc(OC2CCCC2)c(-c2ccc(S(C)(=O)=O)cc2)s1 [Compound 12, 4-cyclopentyloxy-5-(4-methylsulfonyl-phenyl)-2-methyl-thiazole]",Effect on IL-10 production by PBMC in the presence and absence of LPS or anti-CD3 + anti-CD28,IL-10 [1],no effects; also recorded: No statistical differences were found
same,Effect on CD62L shedding in lymphocytes,CD62L in lymphocytes,increases significantly
same,Effect on TNF-alpha production by PBMC stimulated with LPS,"TNF-alpha [2]; 10^−6 M, 10^−7 M and 10^−8 M, statistically significant (p<0.05), FIG. 3",diminished TNF-alpha production
same,"Effect on TNF-alpha secretion by PBMC, anti-CD3 and anti-CD28 stimulated or spontaneous","TNF-alpha [2]; anti-CD3 + anti-CD28, or absence of exogenous stimuli",neither TNF-alpha secretion by PBMC stimulated with monoclonal antibodies anti-CD3 and anti-CD28 nor spontaneous one (as observed in the absence of exogenous stimuli) was modified
same,"Effect on IL-10 production by PBMC, spontaneous or anti-CD3 and anti-CD28 stimulated",IL-10 [3],no significant effects
same,Effect on IL-10 production after stimulation with LPS,"IL-10 [3]; 10^−8, p<0.05, FIG. 10",significantly inhibited
same,Effect on CD62L shedding in monocytes,CD62L in monocytes,significant differences were not observed
same,Effect on TNF-alpha concentration in the supernatant of LPS-stimulated PBMC,"TNF-alpha [4]; 10^−6 M and 10^−7 M, LPS, p<0.05 vs vehicle, FIG. 2",diminished in a statistically significant manner
same,Effect on spontaneous TNF-alpha production by PBMC,"TNF-alpha [4]; 10^−6 M, no stimulus",lowered the spontaneous TNF-alpha production
